Results as given in patent US20250059171A1 (Hoffmann-La Roche Inc., priority 2021, published 2025).

Legend:
SARS-CoV-2 3CLpro = SARS-CoV-2 3CLpro (Severe acute respiratory syndrome coronavirus 2, UniProt P0DTD1); assay: biochemical
HCoV-229E 3CLpro = HCoV-229E 3CLpro (Human coronavirus 229E, UniProt P0C6X1); assay: HCoV-229E 3CLpro inhibition assay (FRET); format: biochemical
MERS-CoV 3CLpro = MERS-CoV 3CLpro (Middle East respiratory syndrome-related coronavirus, UniProt K9N7C7); assay: biochemical
SARS-CoV 3CLpro = SARS-CoV 3CLpro (Severe acute respiratory syndrome coronavirus, UniProt P0C6X7); assay: biochemical

Chain of MERS-CoV 3CLpro (K9N7C7 3248-3553): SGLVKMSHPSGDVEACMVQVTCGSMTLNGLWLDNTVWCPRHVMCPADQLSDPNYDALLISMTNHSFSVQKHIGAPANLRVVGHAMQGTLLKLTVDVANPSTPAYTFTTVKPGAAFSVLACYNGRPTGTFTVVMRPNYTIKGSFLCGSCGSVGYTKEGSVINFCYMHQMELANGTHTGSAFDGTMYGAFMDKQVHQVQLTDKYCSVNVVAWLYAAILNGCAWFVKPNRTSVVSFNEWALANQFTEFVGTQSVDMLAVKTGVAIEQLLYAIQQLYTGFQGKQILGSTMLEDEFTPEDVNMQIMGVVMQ
Chain of HCoV-229E 3CLpro (P0C6X1 2966-3267): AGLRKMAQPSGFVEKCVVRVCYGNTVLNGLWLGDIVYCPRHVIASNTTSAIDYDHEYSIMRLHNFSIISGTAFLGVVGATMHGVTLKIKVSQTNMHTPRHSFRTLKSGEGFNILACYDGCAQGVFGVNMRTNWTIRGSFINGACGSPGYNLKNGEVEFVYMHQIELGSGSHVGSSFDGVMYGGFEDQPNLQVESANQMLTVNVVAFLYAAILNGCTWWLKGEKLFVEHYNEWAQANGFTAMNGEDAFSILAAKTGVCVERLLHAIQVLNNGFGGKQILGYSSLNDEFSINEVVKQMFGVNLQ

CC[C@@H](C)[C@H](NC(=O)C1(F)CC1)C(=O)N1C[C@H]2[C@@H]([C@H]1C(=O)NN(C[C@@H]1CCNC1=O)C(=O)[C@@H](F)Cl)C2(C)C [Example 121, N-[(1S,2R)-1-[(1R,2S,5S)-2-[[[(2S)-2-chloro-2-fluoro-acetyl]-[[(3S)-2-oxopyrrolidin-3-yl]methyl]amino]carbamoyl]-6,6-dimethyl-3-azabicyclo[3.1.0]hexane-3-carbonyl]-2-methyl-butyl]-1-fluoro-cyclopropanecarboxamide]
IC50 (SARS-CoV-2 3CLpro): 26 nM | IC50 (HCoV-229E 3CLpro): 43 nM | IC50 (MERS-CoV 3CLpro): 131 nM | IC50 (SARS-CoV 3CLpro): 50 nM

CC[C@@H](C)[C@H](NC(=O)C1(F)CCC1)C(=O)N1C[C@H]2[C@@H]([C@H]1C(=O)NN(C[C@@H]1CCNC1=O)C(=O)[C@H](F)Cl)C2(C)C [Example 119, N-[(1S,2R)-1-[(1R,2S,5S)-2-[[[(2R)-2-chloro-2-fluoro-acetyl]-[[(3S)-2-oxopyrrolidin-3-yl]methyl]amino]carbamoyl]-6,6-dimethyl-3-azabicyclo[3.1.0]hexane-3-carbonyl]-2-methyl-butyl]-1-fluoro-cyclobutanecarboxamide]
IC50 (SARS-CoV-2 3CLpro): 15 nM | IC50 (HCoV-229E 3CLpro): 56 nM | IC50 (MERS-CoV 3CLpro): 206 nM | IC50 (SARS-CoV 3CLpro): 20 nM

CCC(C)(C)[C@H](NC(=O)[C@@H](C)F)C(=O)N1C[C@H]2[C@@H]([C@H]1C(=O)NN(C[C@@H]1CCNC1=O)C(=O)[C@H](F)Cl)C2(C)C [Example 141, (2R)—N-[(1S)-1-[(1R,2S,5S)-2-[[[(2R)-2-chloro-2-fluoro-acetyl]-[[(3S)-2-oxopyrrolidin-3-yl]methyl]amino]carbamoyl]-6,6-dimethyl-3-azabicyclo[3.1.0]hexane-3-carbonyl]-2,2-dimethyl-butyl]-2-fluoro-propanamide]
IC50 (SARS-CoV-2 3CLpro): 10 nM | IC50 (HCoV-229E 3CLpro): 35 nM | IC50 (MERS-CoV 3CLpro): 117 nM | IC50 (SARS-CoV 3CLpro): 15 nM

CC[C@H](C)[C@H](NC(=O)C1(F)CC1)C(=O)N1C[C@H]2[C@@H]([C@H]1C(=O)NN(C[C@H]1CCCNC1=O)C(=O)[C@H](F)Cl)C2(C)C [Example 166b, N-[(1S,2S)-1-[(1R,2S,5S)-2-[[[(2R)-2-chloro-2-fluoro-acetyl]-[[(3R)-2-oxo-3-piperidyl]methyl]amino]carbamoyl]-6,6-dimethyl-3-azabicyclo[3.1.0]hexane-3-carbonyl]-2-methyl-butyl]-1-fluoro-cyclopropanecarboxamide]
IC50 (SARS-CoV-2 3CLpro): 19 nM | IC50 (HCoV-229E 3CLpro): 51 nM | IC50 (MERS-CoV 3CLpro): 239 nM | IC50 (SARS-CoV 3CLpro): 30 nM

CC1(C)C[C@@H](C(=O)NN(C[C@@H]2CCNC2=O)C(=O)[C@H](F)Cl)N(C(=O)[C@@H](NC(=O)C(F)(F)F)C(C)(C)C)C1 [Example 8, N-[(1S)-1-[(2S)-2-[[[(2R)-2-chloro-2-fluoro-acetyl]-[[(3S)-2-oxopyrrolidin-3-yl]methyl]amino]carbamoyl]-4,4-dimethyl-pyrrolidine-1-carbonyl]-2,2-dimethyl-propyl]-2,2,2-trifluoro-acetamide]
IC50 (SARS-CoV-2 3CLpro): 10 nM | IC50 (HCoV-229E 3CLpro): 42 nM | IC50 (MERS-CoV 3CLpro): 136 nM | IC50 (SARS-CoV 3CLpro): 25 nM

CC(C)(C)[C@H](Nc1cc(F)ncn1)C(=O)N1C[C@@H]2CCC[C@@H]2[C@H]1C(=O)NN(C[C@@H]1CCNC1=O)C(=O)[C@H](F)Cl [Example 182]
IC50 (SARS-CoV-2 3CLpro): 11 nM | IC50 (HCoV-229E 3CLpro): 37 nM | IC50 (MERS-CoV 3CLpro): 89 nM | IC50 (SARS-CoV 3CLpro): 12 nM

CCC(C)(C)[C@H](NC(=O)C1CC1)C(=O)N1C[C@@H]2CCC[C@@H]2[C@H]1C(=O)NN(C[C@H]1CCCNC1=O)C(=O)[C@H](F)Cl [Example 167b, N-[(1S)-1-[(3S,3aS,6aR)-3-[[[(2R)-2-chloro-2-fluoro-acetyl]-[[(3R)-2-oxo-3-piperidyl]methyl]amino]carbamoyl]-3,3a,4,5,6,6a-hexahydro-1H-cyclopenta[c]pyrrole-2-carbonyl]-2,2-dimethyl-butyl]cyclopropanecarboxamide]
IC50 (SARS-CoV-2 3CLpro): 19 nM | IC50 (HCoV-229E 3CLpro): 210 nM | IC50 (MERS-CoV 3CLpro): 1630 nM | IC50 (SARS-CoV 3CLpro): 41 nM

CC(C)(C)[C@H](NC(=O)[C@H]1CC1(F)F)C(=O)N1C[C@@H]2CCC[C@@H]2[C@H]1C(=O)NN(C[C@@H]1CCNC1=O)C(=O)[C@H](F)Cl [Example 100, (1R)—N-[(1S)-1-[(3S,3aS,6aR)-3-[[[(2R)-2-chloro-2-fluoro-acetyl]-[[(3S)-2-oxopyrrolidin-3-yl]methyl]amino]carbamoyl]-3,3a,4,5,6,6a-hexahydro-1H-cyclopenta[c]pyrrole-2-carbonyl]-2,2-dimethyl-propyl]-2,2-difluoro-cyclopropanecarboxamide]
IC50 (SARS-CoV-2 3CLpro): 8 nM | IC50 (HCoV-229E 3CLpro): 32 nM | IC50 (MERS-CoV 3CLpro): 77 nM | IC50 (SARS-CoV 3CLpro): 14 nM

CC[C@H](C)[C@H](NC(=O)C(C)(F)F)C(=O)N1C[C@H]2[C@@H]([C@H]1C(=O)NN(C[C@@H]1CCNC1=O)C(=O)[C@H](F)Cl)C2(C)C [Example 55, N-[(1S,2S)-1-[(1R,2S,5S)-2-[[[(2R)-2-chloro-2-fluoro-acetyl]-[[(3S)-2-oxopyrrolidin-3-yl]methyl]amino]carbamoyl]-6,6-dimethyl-3-azabicyclo[3.1.0]hexane-3-carbonyl]-2-methyl-butyl]-2,2-difluoro-propanamide]
IC50 (SARS-CoV-2 3CLpro): 8 nM | IC50 (HCoV-229E 3CLpro): 21 nM | IC50 (MERS-CoV 3CLpro): 56 nM | IC50 (SARS-CoV 3CLpro): 14 nM

CC(C)(C)[C@H](NC(=O)C1(F)CC1)C(=O)N1C[C@H]2[C@@H]([C@H]1C(=O)NN(C[C@@H]1CCNC1=O)C(=O)[C@@H](F)Cl)C2(C)C [Example 94, N-[(1S)-1-[(1R,2S,5S)-2-[[[(2S)-2-chloro-2-fluoro-acetyl]-[[(3S)-2-oxopyrrolidin-3-yl]methyl]amino]carbamoyl]-6,6-dimethyl-3-azabicyclo[3.1.0]hexane-3-carbonyl]-2,2-dimethyl-propyl]-1-fluoro-cyclopropanecarboxamide]
IC50 (SARS-CoV-2 3CLpro): 21 nM | IC50 (HCoV-229E 3CLpro): 59 nM | IC50 (MERS-CoV 3CLpro): 136 nM | IC50 (SARS-CoV 3CLpro): 29 nM

CC(C)(C)C(=O)N[C@H](C(=O)N1C[C@H]2[C@@H]([C@H]1C(=O)NN(C[C@@H]1CCNC1=O)C(=O)[C@H](F)Cl)C2(C)C)C(C)(C)C [Example 11, N-[(1S)-1-[(1R,2S,5S)-2-[[[(2R)-2-chloro-2-fluoro-acetyl]-[[(3S)-2-oxopyrrolidin-3-yl]methyl]amino]carbamoyl]-6,6-dimethyl-3-azabicyclo[3.1.0]hexane-3-carbonyl]-2,2-dimethyl-propyl]-2,2-dimethyl-propanamide]
IC50 (SARS-CoV-2 3CLpro): 218 nM | IC50 (HCoV-229E 3CLpro): 56 nM | IC50 (MERS-CoV 3CLpro): 260 nM | IC50 (SARS-CoV 3CLpro): 34 nM

CCC(CC)[C@H](NC(=O)C1(F)CC1)C(=O)N1CC(C)(C)C[C@H]1C(=O)NN(C[C@@H]1CCNC1=O)C(=O)[C@H](F)Cl [Example 138, N-[(1S)-1-[(2S)-2-[[[(2R)-2-chloro-2-fluoro-acetyl]-[[(3S)-2-oxopyrrolidin-3-yl]methyl]amino]carbamoyl]-4,4-dimethyl-pyrrolidine-1-carbonyl]-2-ethyl-butyl]-1-fluoro-cyclopropanecarboxamide]
IC50 (SARS-CoV-2 3CLpro): 16 nM | IC50 (HCoV-229E 3CLpro): 54 nM | IC50 (MERS-CoV 3CLpro): 283 nM | IC50 (SARS-CoV 3CLpro): 25 nM

CC(C)(C)[C@H](NC(=O)[C@@H]1CC1(F)F)C(=O)N1C[C@@H]2CCC[C@@H]2[C@H]1C(=O)NN(C[C@@H]1CCCNC1=O)C(=O)[C@H](F)Cl [Example 196, (1S)—N-[(1S)-1-[(3S,3aS,6aR)-3-[[[(2R)-2-chloro-2-fluoro-acetyl]-[[(3S)-2-oxo-3-piperidyl]methyl]amino]carbamoyl]-3,3a,4,5,6,6a-hexahydro-1H-cyclopenta[c]pyrrole-2-carbonyl]-2,2-dimethyl-propyl]-2,2-difluoro-cyclopropanecarboxamide]
IC50 (SARS-CoV-2 3CLpro): 11 nM | IC50 (HCoV-229E 3CLpro): 38 nM | IC50 (MERS-CoV 3CLpro): 89 nM | IC50 (SARS-CoV 3CLpro): 14 nM

CCC(CC)[C@H](NC(=O)C1CC1)C(=O)N1C[C@H]2[C@@H]([C@H]1C(=O)NN(C[C@@H]1CCCNC1=O)C(=O)[C@H](F)Cl)C2(C)C [Example 172, N-[(1S)-1-[(1R,2S,5S)-2-[[[(2R)-2-chloro-2-fluoro-acetyl]-[[(3S)-2-oxo-3-piperidyl]methyl]amino]carbamoyl]-6,6-dimethyl-3-azabicyclo[3.1.0]hexane-3-carbonyl]-2-ethyl-butyl]cyclopropanecarboxamide]
IC50 (SARS-CoV-2 3CLpro): 17 nM | IC50 (HCoV-229E 3CLpro): 71 nM | IC50 (MERS-CoV 3CLpro): 187 nM | IC50 (SARS-CoV 3CLpro): 26 nM

CC[C@H](C)[C@H](NC(=O)C1CC(F)(F)C1)C(=O)N1C[C@@H]2CCC[C@@H]2[C@H]1C(=O)NN(C[C@@H]1CCNC1=O)C(=O)[C@H](F)Cl [Example 126, N-[(1S,2S)-1-[(3S,3aS,6aR)-3-[[[(2R)-2-chloro-2-fluoro-acetyl]-[[(3S)-2-oxopyrrolidin-3-yl]methyl]amino]carbamoyl]-3,3a,4,5,6,6a-hexahydro-1H-cyclopenta[c]pyrrole-2-carbonyl]-2-methyl-butyl]-3,3-difluoro-cyclobutanecarboxamide]
IC50 (SARS-CoV-2 3CLpro): 10 nM | IC50 (HCoV-229E 3CLpro): 28 nM | IC50 (MERS-CoV 3CLpro): 68 nM | IC50 (SARS-CoV 3CLpro): 11 nM

CC[C@H](C)[C@H](NC(=O)C(C)C)C(=O)N1C[C@@H]2CCC[C@@H]2[C@H]1C(=O)NN(C[C@@H]1CCNC1=O)C(=O)[C@H](F)Cl [Example 47, N-[(1S,2S)-1-[(3S,3aS,6aR)-3-[[[(2R)-2-chloro-2-fluoro-acetyl]-[[(3S)-2-oxopyrrolidin-3-yl]methyl]amino]carbamoyl]-3,3a,4,5,6,6a-hexahydro-1H-cyclopenta[c]pyrrole-2-carbonyl]-2-methyl-butyl]-2-methyl-propanamide]
IC50 (SARS-CoV-2 3CLpro): 7 nM | IC50 (HCoV-229E 3CLpro): 26 nM | IC50 (MERS-CoV 3CLpro): 76 nM | IC50 (SARS-CoV 3CLpro): 12 nM

CC(C)(C)[C@H](NC(=O)[C@@H]1CC1(F)F)C(=O)N1C[C@H](C(F)(F)F)C[C@H]1C(=O)NN(C[C@@H]1CCNC1=O)C(=O)[C@H](F)Cl [Example 158, (1S)—N-[(1S)-1-[(2S,4R)-2-[[[(2R)-2-chloro-2-fluoro-acetyl]-[[(3S)-2-oxopyrrolidin-3-yl]methyl]amino]carbamoyl]-4-(trifluoromethyl)pyrrolidine-1-carbonyl]-2,2-dimethyl-propyl]-2,2-difluoro-cyclopropanecarboxamide]
IC50 (SARS-CoV-2 3CLpro): 11 nM | IC50 (HCoV-229E 3CLpro): 34 nM | IC50 (MERS-CoV 3CLpro): 80 nM | IC50 (SARS-CoV 3CLpro): 17 nM
